Test [1] concerns the target T1, CAP-activated channels in cultured neonatal rat dorsal root ganglion (DRG) neurons (Rattus norvegicus, UniProt O35433).
T1 construct: extracellular application of the compounds to cultured neonatal rat dorsal root ganglion (DRG) neurons; endogenous in cells; host or cells: primary cultured DRG neurons from 1 or 2 day old neonatal rats
It counts as cell-based. Also on record: key: + = CAP; ++ = 10 CAP; +++ = 100 CAP.

Test [2] has as its system PBQ-induced writhing in ICR mice. The test is described as follows: animal or person. The test is classed as in vivo, mouse. The settings on record: for Relative Potency (Writhing Test) / Writhing Test ED50: mouse, in vivo; for Writhing Test ED50 / ED50: ip; for ED50: Mus musculus, read-out: Writhing Test ED50.
Test [3] concerns TPA-induced ear edema in ICR mice. To be noted: mouse, in vivo.
Test [4] concerns rat eye (eye-wiping response). The settings on record: in vivo.
Test [5] addresses T2, vanilloid receptor (rat spinal cord membrane preparations) (Rattus norvegicus, UniProt O35433).
T2 construct: determined on membrane preparations from rat spinal cord; from tissue; host or cells: rat spinal cord membranes
The test is described as follows: biochemical. The test is classed as binding.

Read-outs that look alike come from different tables or passages of the source.

T1 sequence (O35433 whole entry): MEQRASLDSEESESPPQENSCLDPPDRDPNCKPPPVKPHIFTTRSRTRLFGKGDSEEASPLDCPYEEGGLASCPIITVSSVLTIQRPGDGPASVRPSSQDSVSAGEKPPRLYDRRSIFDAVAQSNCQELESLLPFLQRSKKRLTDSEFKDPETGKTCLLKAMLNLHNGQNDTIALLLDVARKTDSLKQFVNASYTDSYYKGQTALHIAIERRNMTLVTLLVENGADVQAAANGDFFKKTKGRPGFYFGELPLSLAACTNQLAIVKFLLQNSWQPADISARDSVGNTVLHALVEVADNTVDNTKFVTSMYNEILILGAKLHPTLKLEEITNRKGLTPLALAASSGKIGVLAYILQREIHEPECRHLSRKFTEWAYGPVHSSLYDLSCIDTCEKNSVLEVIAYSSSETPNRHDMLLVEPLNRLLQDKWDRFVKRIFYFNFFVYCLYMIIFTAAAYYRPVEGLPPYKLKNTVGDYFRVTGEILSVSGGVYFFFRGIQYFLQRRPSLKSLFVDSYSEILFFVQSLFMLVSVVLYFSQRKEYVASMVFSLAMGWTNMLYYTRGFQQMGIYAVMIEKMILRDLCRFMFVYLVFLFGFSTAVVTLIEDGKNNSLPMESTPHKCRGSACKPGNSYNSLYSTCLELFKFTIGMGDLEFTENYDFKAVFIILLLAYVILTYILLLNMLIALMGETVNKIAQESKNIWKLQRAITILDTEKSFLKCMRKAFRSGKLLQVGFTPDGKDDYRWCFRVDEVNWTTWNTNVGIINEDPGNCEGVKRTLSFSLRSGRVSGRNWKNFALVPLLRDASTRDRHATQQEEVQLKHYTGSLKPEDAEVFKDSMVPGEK
T2 sequence (O35433 whole entry): as above

As to “2-(4-Chlorobenzyl)-3-{[(4-hydroxy-3-methoxybenzyl)amino]carbothioyl}propyl Benzoate [7c-V]”, the Activations result in test [1] was “++”. Further, in test [2], the “Relative Potency (Writhing Test)” value amounted to 25 and the “Writhing Test ED50” value came out at 0.012 mg/kg. Further, in test [3], the “Ear Edema Assay ID50” value stood at 17 μg/ear and the “Relative Potency (Ear Edema Assay)” value was 0.18.

On to “2-Benzyl-3-{[(4-hydroxy-3-methoxybenzyl)amino]carbothioyl}propyl Benzoate [7a-V]”, for which the Activations result in test [1] is given as “++”. In test [2], the “Relative Potency (Writhing Test)” value is 15 and the “Writhing Test ED50” value was found to be 0.02 mg/kg. Moreover, in test [3], the “Ear Edema Assay ID50” value is listed as 20 μg/ear and the “Relative Potency (Ear Edema Assay)” value stood at 0.15. Moreover, the “% Reduction of response to 0.001% capsaicin” value in test [4] is reported as 0 (0.1) %.

Regarding “2-Benzyl-3-{[(4-hydroxy-3-methoxybenzyl)amino]carbothioyl}propyl Hexanoate [7a-III]”, in test [5] (read-out: Affinities (Ki)), the Ki – broadly, a measure of affinity in units of concentration, obtained from inhibition or displacement – was determined as 632 nM. The Activations result in test [1] is reported as “++”. For the same compound, in test [2], the “Relative Potency (Writhing Test)” value stood at 60 and the “Writhing Test ED50” value came to 0.005 mg/kg.

“2-Benzyl-3-{[(4-hydroxy-3-methoxybenzyl)amino]carbothioyl}propyl Pivalate [7a-I]”: the Activations result in test [1] is “+++”. In test [2], the “Relative Potency (Writhing Test)” value came out at 150 and the “Writhing Test ED50” value worked out at 0.002 mg/kg. Further, in test [3], the “Ear Edema Assay ID50” value is reported as 25 μg/ear and the “Relative Potency (Ear Edema Assay)” value was found to be 0.12.

With “2-Benzyl-3-{[(4-hydroxy-3-methoxybenzyl)amino]carbothioyl}propyl Stearate [7a-IV]”, the Ki in test [5] (read-out: Affinities (Ki)) was 1870 nM. The Activations result in test [1] is “+”. For the same compound, in test [2], the “Relative Potency (Writhing Test)” value came out at 15 and the “Writhing Test ED50” value worked out at 0.02 mg/kg.

For `COc1cc(CNC(=S)NCC(COC(=O)C(C)C)Cc2ccccc2)ccc1O` (centres unmarked) [7a-II, 2-Benzyl-3-{[(4-hydroxy-3-methoxybenzyl)amino]carbothioyl}propyl 2-Methyl Propanoate], the affinity in test [5] corresponds to a Ki of 133 nM. Moreover, in test [1], the Activations result is listed as “+++”. In test [2], the 50% effective dose (ED50) (usually the dose that gives a 50% effect, or the effect in half of the subjects) was 0.015 mg/kg and the “Relative Potency (Writhing Test)” value stood at 20.

The compound `COCOc1ccc(CNC(=S)NCC(COC(=O)C(C)(C)C)Cc2ccc(C)c(C)c2)cc1OC` (centres unmarked) [7b-Ia] came in with a Ki in test [5] of 876 nM.

In test [5], `COc1cc(CNC(=S)NCC(COCc2ccccc2)Cc2ccccc2)ccc1O` (centres unmarked) [9a, N-[2-Benzyl-3-(benzyloxy)propyl]-N′-(4-hydroxy-3-methoxybenzyl)thiourea] displayed a Ki of 148 nM. The Activations entry in test [1] is “++”.

`COc1cc(CNC(=S)NCC(COCc2ccccc2)Cc2ccc(Cl)cc2)ccc1O` (centres unmarked) [9c, N-[3-Benzyloxy-2-(4-chlorobenzyl)propyl]-N′-(4-hydroxy-3-methoxybenzyl)thiourea]: in test [5], affinity was put at a Ki of 659 nM. Moreover, the Activations entry in test [1] was “++”.

Consider `CC(=O)Oc1ccccc1C(=O)O` [Aspirin, reference compound], for which, in test [2], the median effective dose (ED50) is 3.5 mg/kg and the “Relative Potency (Writhing Test)” value is on record as 0.086.

With `COc1ccc2c(c1)c(CC(=O)O)c(C)n2C(=O)c1ccc(Cl)cc1` [Indomethacin, reference compound], in test [2], the median effective dose (ED50) came out at 0.4 mg/kg and the “Relative Potency (Writhing Test)” value is given as 0.75.

`CN1CC[C@]23c4c5ccc(O)c4O[C@H]2[C@@H](O)C=C[C@H]3[C@H]1C5` [Morphine, reference compound]: in test [2], the ED50 stood at 1 mg/kg and the “Relative Potency (Writhing Test)” value is recorded as 0.3.

Turning to `COCOc1ccc(CNC(=S)NCC(COC(=O)C(C)(C)C)Cc2ccccc2)cc1OC` (centres unmarked) [compound 10], the affinity in test [5], expressed as Ki, was 146 nM. Also, in test [1], the Activations result was “++”.

With “(S)-2-Benzyl-3-{[(4-hydroxy-3-methoxybenzyl)amino]carbothioyl}propyl Pivalate [(S)-7a-I]”, the Activations result in test [1] is “++”. Besides, in test [2], the “Relative Potency (Writhing Test)” value is given as 33 and the “Writhing Test ED50” value is 0.009 mg/kg.
